# According to US20240400546A1, “COMPOUNDS AND USES THEREOF” (JANSSEN PHARMACEUTICA NV, priority 2016, published 2024):
# Assays:
# Type in all cases: cell-based
# [1] = target: T1, SCD5 (Homo sapiens, UniProt Q86SK9); assay: Growth inhibition of humanized yeast expressing SCD5 as sole desaturase; settings: for half-maximal inhibitory concentration (IC50), SCD5 humanized strain: FIG. 6
# T1 construct: host or cells: S. cerevisiae ole1Δ strain, plasmid pRS316 with TDH3 promoter and CYC1 terminator
# T1 sequence (Q86SK9 1-330): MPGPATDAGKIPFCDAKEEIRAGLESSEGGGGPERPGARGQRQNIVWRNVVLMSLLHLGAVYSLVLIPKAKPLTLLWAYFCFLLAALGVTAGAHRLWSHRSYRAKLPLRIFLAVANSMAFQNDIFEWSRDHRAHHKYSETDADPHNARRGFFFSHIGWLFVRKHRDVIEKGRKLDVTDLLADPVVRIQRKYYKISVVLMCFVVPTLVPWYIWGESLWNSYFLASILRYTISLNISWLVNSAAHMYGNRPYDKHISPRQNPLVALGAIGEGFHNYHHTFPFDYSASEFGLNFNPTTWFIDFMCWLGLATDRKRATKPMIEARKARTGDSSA
# Method: (§1) Strain ole1Δ (yeast ole1 deletion mutant) was constructed by deleting OLE1 with NAT-MX6 in BY4741, amplifying the deletion cassette from the genomic DNA of the resulting strain with primers flanking the ORF by 1000 bp upstream and downstream, transforming the resulting deletion cassette into W303 pdr1Δ pdr3Δ, and plating transformants on YPD media containing G418 (200 μg/mL) and nourseothricin (100 μg/mL) with 0.01% TWEEN®-20 and 0.5 mM oleic and palmitoleic acids.
# (§2) The coding sequence of yeast OLE1 was also cloned into this plasmid). These clones were then transformed into the ole1Δ strain and plated on CSM-Ura media (CSM lacking uracil) with 2% glucose (w/v) and independent colonies were isolated and amplified.
# (§3) All compound profiling experiments were performed using the same basic protocol. Different genetic backgrounds (e.g., gene deletions) or conditions (e.g., addition of oleic and palmitoleic acid) were replaced as indicated below.
# (§4) Yeast were cultured using standard techniques in complete synthetic media (CSM) and yeast nitrogen base supplemented with 2% (w/v) carbon source (glucose, raffinose, or galactose) to regulate the expression of the toxic disease protein. An initial starter culture was inoculated in 3 mL CSM-Glucose media and incubated overnight in a 30° C. shaker incubator (225 rpm). Saturated morning cultures were then diluted 1:20 in fresh CSM-Raffinose media and grown for 6 h to an OD600 (optical density) of ˜0.4-0.8 at 30° C. with shaking.
# (§5) Compound administration was performed in two separate steps. First, 15 μL of CSM-Galactose (induces expression of toxic protein) was dispensed into clear 384 well assay plates using a MULTIDROP™ Combi reagent dispenser. […] The cultures described above were then diluted to a 2× concentration (0.03 and 0.08 for alpha-synuclein and ApoE, final OD600 of 0.015 and 0.04) in CSM-Galactose. For wild-type and Ole1/SCD1/SCD5 plasmid-containing strains, the 2× cell density was 0.02. […] For 96-well assays (FIGS. 1A and 1B), compound dilutions in DMSO were generated in 96 well plates and 1 μL was manually pipetted into 96 well clear bottom assay plates.
# (§6) For experiments using a plasmid-borne copy of Ole1, SCD1, or SCD5 (FIGS. 3B, 6, and 7), media lacking uracil (SX-Ura, where X is glucose, raffinose, or galactose), was used for all steps of the compound profiling protocol to ensure its maintenance throughout the assay.
# (§7) After yeast delivery, assay plates were incubated under humidified conditions at 30° C. for 24 to 40 h. ApoE4 rescue experiments were stopped at 24 h, aSyn experiments at 40 h, Ole1 at 24 h, and SCD1/SCD5 at 40 h. The growth of yeast was monitored by reading the OD600 of each well using a microplate reader (Perkin Elmer EnVision™).
# [2] = target: T2, SCD1 (Homo sapiens, UniProt O00767); assay: Growth inhibition of humanized yeast expressing SCD1 as sole desaturase
# T2 construct: host or cells: S. cerevisiae ole1Δ strain, plasmid pRS316 with TDH3 promoter and CYC1 terminator
# T2 sequence (O00767 1-359): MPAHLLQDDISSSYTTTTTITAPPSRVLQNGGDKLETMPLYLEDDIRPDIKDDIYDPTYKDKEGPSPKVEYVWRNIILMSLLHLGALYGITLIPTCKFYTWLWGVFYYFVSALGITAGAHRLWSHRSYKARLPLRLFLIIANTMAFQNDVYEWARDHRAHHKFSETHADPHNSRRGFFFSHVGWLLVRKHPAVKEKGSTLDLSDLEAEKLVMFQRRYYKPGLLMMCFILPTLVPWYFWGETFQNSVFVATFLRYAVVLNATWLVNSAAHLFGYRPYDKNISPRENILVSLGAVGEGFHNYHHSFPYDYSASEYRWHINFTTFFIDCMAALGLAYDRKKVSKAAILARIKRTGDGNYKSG
# Summary of the method: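 ole1Δ yeast (W303 pdr1Δ pdr3Δ background) carried plasmid-borne human SCD1, human SCD5 or yeast Ole1 as the sole desaturase and were grown in uracil-lacking galactose medium in 384-well plates. Starting 2× density was OD600 0.02, with incubation at 30 °C. Growth was read as OD600 at 24 h for Ole1 and at 40 h for SCD1 and SCD5.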
# [3] = target: T3, Ole1 (Saccharomyces cerevisiae, UniProt P21147); assay: Growth inhibition of yeast expressing Ole1 as sole desaturase; settings: FIG. 6
# T3 construct: expressed in transfected cells; host or cells: S. cerevisiae ole1Δ strain (W303 pdr1Δ pdr3Δ background), plasmid pRS316 with TDH3 promoter and CYC1 terminator
# T3 sequence (P21147 1-510): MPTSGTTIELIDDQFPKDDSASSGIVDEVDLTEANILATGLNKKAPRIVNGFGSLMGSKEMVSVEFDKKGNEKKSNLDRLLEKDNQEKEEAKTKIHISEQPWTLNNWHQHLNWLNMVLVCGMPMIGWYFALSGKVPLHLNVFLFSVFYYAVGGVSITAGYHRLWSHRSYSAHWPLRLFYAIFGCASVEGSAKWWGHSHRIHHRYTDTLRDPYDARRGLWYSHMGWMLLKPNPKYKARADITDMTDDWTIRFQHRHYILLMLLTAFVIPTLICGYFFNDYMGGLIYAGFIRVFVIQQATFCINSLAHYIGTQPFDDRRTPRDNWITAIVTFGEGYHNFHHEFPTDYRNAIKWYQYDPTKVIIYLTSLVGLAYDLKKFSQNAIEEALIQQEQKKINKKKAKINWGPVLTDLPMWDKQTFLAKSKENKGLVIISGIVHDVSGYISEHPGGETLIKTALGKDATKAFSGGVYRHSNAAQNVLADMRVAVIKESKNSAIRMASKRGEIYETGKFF
# Method: as §1, §2, §3, §4, §5, §6, §7
# [4] = humanized yeast expressing human SCD5
# [5] = humanized yeast expressing human SCD1
# [6] = growth of humanized yeast strain expressing human SCD5
# [7] = growth of humanized yeast strain expressing human SCD1
smiles,measurement,setting,value
CC(C)n1ncc2ccc(-c3noc(C4CCNCC4)n3)cc21 [Compound 500],IC50,[1]; [4],> 45 µM
same,IC50,[2]; [5],> 45 µM
CC(C)n1ncc2ccc(N3CC4(CCN(C(=O)OC(C)(C)C)CC4)C3)cc21 [Compound 511],IC50,[1]; [4],3.39 µM
same,IC50,[2]; [5],> 45 µM
CC1=NN(C)C2C=C(c3noc([C@H]4CC[C@H](O)CC4)n3)C=CC12 (stereo partly drawn) [Compound 526],IC50,[1]; [4],> 45 µM
same,IC50,[2]; [5],> 45 µM
Cc1noc(N2CCC(c3nc(-c4ccc5c(C)nn(C)c5c4)no3)CC2)n1 [Compound 543],IC50,[1]; [4],≥ 45 µM
same,IC50,[2]; [5],> 45 µM
CC(C)n1ncc2ccc(-c3nc(C4CCN(C(=O)c5cccc(F)c5)CC4)no3)cc21 [Compound 547],IC50,[1]; [4],44.3 µM
Cc1nn(C)c2cc(-c3noc(C4CCN(C(=O)CNC(=O)c5ccc(Cl)cc5)CC4(F)F)n3)ccc12 (stereo not drawn) [Compound 553],IC50,[1]; [4],0.885 µM
same,IC50,[2]; [5],5.71 µM
CC(C)n1ncc2ccc(-c3noc(C4CCN(C(=O)c5ncco5)CC4)n3)cc21 [Compound 615],IC50,[1]; [6],1.88 µM
same,IC50,[2]; [7],0.848 µM
Cc1cc(N2CCN(c3nc(-c4ccc5cnn(C(C)C)c5c4)no3)CC2)on1 [Compound 657],IC50,[1]; [6],9.11 µM
same,IC50,[2]; [7],> 45 µM
CC(C)n1ncc2ccc(N3CC4(CCN(C(=O)OC(C)(C)C)CC4)C3)cc21 [Compound 663],IC50,[1]; [6],0.01 µM
same,IC50,[2]; [7],> 45 µM
CC(C)(C)OC(=O)N1CCN(c2noc(-c3ccc4cnn(C5COC5)c4c3)n2)CC1 [Compound 750],IC50,"[1]; humanized yeast strain, 40 h",0.01 µM
same,IC50,"[2]; humanized yeast strain, 40 h",3.25 µM
COCC(C)(C)n1ncc2ccc(-c3noc(C4CCN(C(=O)OC(C)(C)C)CC4)n3)cc21 [Compound 788],IC50,"[1]; humanized yeast strain, 40 h",6.22 µM
same,IC50,"[2]; humanized yeast strain, 40 h",> 45 µM
COC(=O)C1CCCN(c2noc(-c3ccc4cnn(C5COC5)c4c3)n2)CC1 (stereo not drawn) [Compound 857],IC50,"[1]; humanized yeast strain, 40 h",26.8 µM
same,IC50,"[2]; humanized yeast strain, 40 h",> 45 µM
CC(=O)N1CC(n2cc3ccc(-c4nc(C5CCN(C(=O)OC(C)(C)C)CC5)no4)cc3n2)C1 [Compound 862],IC50,"[1]; humanized yeast strain, 40 h",0.01 µM
same,IC50,"[2]; humanized yeast strain, 40 h",33.8 µM
"CNC(=O)c1cccc(NC(=O)N2CCC(Oc3ccccc3Cl)CC2)c1 [Compound A939572, reference compound]",Sensitivity of yeast expressing OLE1 to known SCD1/SCD5 inhibitors,[3],resistant
same,"half-maximal inhibitory concentration (IC50), SCD5 humanized strain",[1],low nanomolar
same,"half-maximal inhibitory concentration (IC50), SCD1 humanized strain",[2]; FIG. 6,low nanomolar
"O=C(O)Cn1nnc(-c2cc(N3CCC(Oc4cc(F)ccc4Br)CC3)no2)n1 [MK-8245, reference compound]",Sensitivity of yeast expressing OLE1 to known SCD1/SCD5 inhibitors,[3],resistant
same,"half-maximal inhibitory concentration (IC50), SCD5 humanized strain",[1],low nanomolar
